{"source": "ChEMBL document CHEMBL1144141", "about": "“Four new steroids from two octocorals” (J Nat Prod, 1999)"}
{"tested_on": "Amphibalanus amphitrite", "test": "Antifouling activity against Balanus amphitrite assessed as inhibition of cyprid larval settlement", "format": "functional, organism-based", "units": {"EC50": "µg/mL"}}
{"compound": "CC(=O)O[C@H]1C[C@H]2[C@@H](CCC3=CC(=O)C=C[C@@]32C)[C@]23CC[C@]([C@H](C)CCCC(C)C)(O[C@@]12C)O3", "note": "[ISOGOSTERONE A]", "EC50": 2.2}
{"compound": "CC(=O)OC(CCC(C)C)[C@@H](C)[C@]1(O)CC[C@@]2(O1)[C@@H]1CCC3=CC(=O)C=C[C@]3(C)[C@H]1C[C@H](OC(C)=O)[C@]2(C)O", "note": "(stereo partly drawn) [ISOGOSTERONE C]", "EC50": 2.2}
{"compound": "CC(=O)O[C@H]1C[C@H]2[C@@H](CCC3=CC(=O)C=C[C@@]32C)[C@]2(CC[C@@](O)([C@H](C)C(=O)CCC(C)C)O2)[C@@]1(C)O", "note": "[ISOGOSTERONE B]", "EC50": 2.2}
{"compound": "CC(=O)OC(CCC(C)C)[C@@H](C)[C@]12CC[C@@]3(O1)[C@@H]1CCC4=CC(=O)C=C[C@]4(C)[C@H]1C[C@H](OC(C)=O)[C@]3(C)O2", "note": "(stereo partly drawn) [ISOGOSTERONE D]", "EC50": 2.2}
{"tested_on": "Amphibalanus amphitrite", "test": "Lethality against Balanus amphitrite cyprid larvae", "units": {"LD100": "µg/mL"}}
{"compound": "CC(C)=CC(O)C(O)[C@@H](C)[C@H]1CC[C@H]2[C@@H]3CC[C@H]4CC(=O)C=C[C@]4(C)[C@H]3CC[C@]12C", "note": "(stereo partly drawn)", "LD100": 100}
{"compound": "COC(=O)/C=C/[C@@H](C)[C@H]1CC[C@H]2[C@@H]3CCC4=CC(=O)C=C[C@]4(C)[C@H]3CC[C@]12C", "LD100": 100}
{"compound": "C=C[C@H]1CC[C@H]2[C@@H]3CCc4cc(OC)ccc4[C@H]3CC[C@]12C", "LD100": 100}
{"compound": "C=C[C@H]1CC[C@H]2[C@@H]3CCc4cc(O[C@@H]5O[C@@H](C)[C@@H](OC(C)=O)[C@@H](O)[C@@H]5O)ccc4[C@H]3CC[C@]12C", "LD100": 100}
